Reference: publication PMC5021161 (Environmental and Molecular Mutagenesis, 2016)
Where two headings read alike, the source gives them in different places.

Experiments:
bacteria = conditions: ref NTP, 1993; cited from earlier work
[1] = 2012, cited from earlier work
GADD45A = assay type: cell-based, human; conditions: 5% ethanol S9, 4 hr + 3-4 hr recovery
TK6 cells [2] = conditions: for % Relative Survival: 5% ethanol S9, 4 hr + 20 hr recovery
CDKN1A = assay type: cell-based, human; conditions: 5% ethanol S9, 4 hr + 3-4 hr recovery
[3] = B6C3F1 mouse bone marrow cells; ref NTP, 1993; cited from earlier work
mammalian cells = conditions: Chinese hamster ovary cells; ref NTP, 1993; cited from earlier work
[4] = rats and mice; ref NTP, 1993; cited from earlier work
TK6 cells [5] = conditions: 5% ethanol S9, 4 hr + 20 hr recovery
[6] = tested on: TGx‐28.65 biomarker genes; conditions: 5% ethanol S9, 4 hr + 3-4 hr recovery
TK6 cells [7] = conditions: for % MN: 5% ethanol S9, 4 hr + 20 hr recovery
ATF3 = assay type: cell-based, human; conditions: 5% ethanol S9, 4 hr + 3-4 hr recovery

c1ccoc1 [Furan]
Ames test (bacteria): negative
liver DNA strand breaks, comet assay ([1]; Big Blue rats, ref McDaniel et al.): DNA damage at high doses
DNA strand breaks by the comet assay ([1]; F344 rats at cancer‐causing doses, ref Ding et al.): near‐linear dose‐dependent increase in DNA strand breaks
GADD45A fold change vs vehicle control (+S9) (GADD45A; 2 mM): 1.4 fold change
GADD45A fold change vs vehicle control (+S9) (GADD45A; 3 mM): 1.4 fold change
GADD45A fold change vs vehicle control (+S9) (GADD45A; 5 mM): 2.4 fold change
% Relative Survival (TK6 cells [2]; 2 mM): 80.06%
% Relative Survival (TK6 cells [2]; 3 mM): 64.52%
% Relative Survival (TK6 cells [2]; 5 mM): 48.45%
effect on RS, range finder (TK6 cells [2]; 2% Aroclor‐induced S9, data not shown): did not cause a decline in RS
CDKN1A fold change vs vehicle control (+S9) (CDKN1A; 2 mM): 3.2 fold change
CDKN1A fold change vs vehicle control (+S9) (CDKN1A; 3 mM): 5.3 fold change
CDKN1A fold change vs vehicle control (+S9) (CDKN1A; 5 mM): 9.8 fold change
chromosomal aberrations [3]: causes chromosomal aberrations
chromosomal aberrations (mammalian cells): causes chromosomal aberrations
carcinogenicity [4]: causes liver cancer
% Apoptotic cells (TK6 cells [5]; 2 mM): 7.07%
% Apoptotic cells (TK6 cells [5]; 3 mM): 8.40%
% Apoptotic cells (TK6 cells [5]; 5 mM): 15.26%
Dendogram TGx‐28.65 ([6]; 2 mM): +
NSC TGx‐28.65 ([6]; 2 mM): +
PCA TGx‐28.65 ([6]; 2 mM): +
Dendogram TGx‐28.65 ([6]; 3 mM): +
NSC TGx‐28.65 ([6]; 3 mM): +
PCA TGx‐28.65 ([6]; 3 mM): +
Dendogram TGx‐28.65 ([6]; 5 mM): +
NSC TGx‐28.65 ([6]; 5 mM): +
PCA TGx‐28.65 ([6]; 5 mM): +
% MN (TK6 cells [7]; 2 mM): 1.57%
% MN (TK6 cells [7]; 3 mM): 1.77%
% MN (TK6 cells [7]; 5 mM): 2.78%
clastogenicity (analysis of MN) (TK6 cells [7]; 5% ethanol‐induced S9): clastogenic at high concentrations
statistically significant % MN increase relative to controls (TK6 cells [7]; for at least one concentration, definitive study): over twofold
ATF3 fold change vs vehicle control (+S9) (ATF3; 2 mM): 2.3 fold change
ATF3 fold change vs vehicle control (+S9) (ATF3; 3 mM): 3.1 fold change
ATF3 fold change vs vehicle control (+S9) (ATF3; 5 mM): 5.4 fold change
